Patent US11339161B2, “Triazolo pyridines as modulators of gamma-secretase” (Boehringer Ingelheim International GmbH, priority 2017, dated 2022)
Like-named read-outs stand apart in the source and are kept apart here.

How the values were obtained:
[1] = system: 15 kinases (ABL1, AURKA, CDK5/p35, CSF1R, FGFR1, FGFR2, FLT4, KDR, LYN B, MAP4K2, MAP4K4, PDGFRA, PTK2, RET, RPS6KB1); experiment: Z'-LYTE SelectScreen biochemical kinase panel: count of kinases inhibited over all 15 kinases tested; conditions: 10 μmolar compound concentration; [ATP] Km app; out of 15 kinases tested
MAP4K4 (HGK) = MAP4K4 (HGK) (Homo sapiens, UniProt O95819); experiment: Z'-LYTE SelectScreen biochemical kinase assay MAP4K4 (HGK)
MAP4K4 (HGK), sequence (O95819 whole entry): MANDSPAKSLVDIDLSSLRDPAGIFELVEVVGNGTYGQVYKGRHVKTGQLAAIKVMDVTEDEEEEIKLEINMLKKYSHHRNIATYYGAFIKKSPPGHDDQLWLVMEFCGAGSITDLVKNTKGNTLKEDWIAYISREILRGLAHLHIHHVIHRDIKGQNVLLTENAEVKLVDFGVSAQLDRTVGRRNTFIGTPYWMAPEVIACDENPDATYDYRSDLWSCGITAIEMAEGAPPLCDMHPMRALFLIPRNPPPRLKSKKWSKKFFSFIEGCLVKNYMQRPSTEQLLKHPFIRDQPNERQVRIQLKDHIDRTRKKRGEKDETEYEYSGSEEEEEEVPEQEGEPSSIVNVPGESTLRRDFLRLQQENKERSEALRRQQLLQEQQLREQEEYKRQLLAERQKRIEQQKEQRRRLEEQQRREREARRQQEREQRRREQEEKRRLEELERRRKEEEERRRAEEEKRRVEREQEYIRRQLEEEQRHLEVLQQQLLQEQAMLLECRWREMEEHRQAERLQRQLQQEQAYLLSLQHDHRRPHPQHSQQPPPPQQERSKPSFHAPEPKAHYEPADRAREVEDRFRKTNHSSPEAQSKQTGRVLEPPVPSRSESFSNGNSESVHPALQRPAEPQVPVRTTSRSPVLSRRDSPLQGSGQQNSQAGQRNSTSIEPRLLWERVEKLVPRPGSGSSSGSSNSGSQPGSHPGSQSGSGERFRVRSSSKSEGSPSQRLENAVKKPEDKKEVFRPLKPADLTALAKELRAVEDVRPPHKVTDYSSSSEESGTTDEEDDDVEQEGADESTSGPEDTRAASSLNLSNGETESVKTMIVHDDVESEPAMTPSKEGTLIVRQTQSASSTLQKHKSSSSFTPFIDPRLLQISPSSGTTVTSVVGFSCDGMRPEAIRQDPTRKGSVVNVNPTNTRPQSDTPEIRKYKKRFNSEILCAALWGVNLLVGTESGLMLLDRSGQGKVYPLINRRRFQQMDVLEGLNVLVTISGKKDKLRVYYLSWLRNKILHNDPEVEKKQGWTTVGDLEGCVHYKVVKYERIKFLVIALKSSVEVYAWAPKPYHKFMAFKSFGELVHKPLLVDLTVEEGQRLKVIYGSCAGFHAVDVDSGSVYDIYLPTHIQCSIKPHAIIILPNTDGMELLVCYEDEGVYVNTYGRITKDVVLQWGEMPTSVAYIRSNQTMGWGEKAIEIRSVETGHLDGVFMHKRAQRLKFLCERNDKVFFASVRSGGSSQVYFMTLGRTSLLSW
Description: (§1) Thermo Fisher Scientific SelectScreen™ Biochemical Kinase Profiling Service Z′-LYTE™ Screening Protocol and Assay Conditions Assay Theory
(§2) The […] biochemical assay employs a fluorescence-based, coupled-enzyme format and is based on the differential sensitivity of phosphorylated and non-phosphorylated peptides to proteolytic cleavage. The peptide substrate is labeled with two fluorophores—one at each end—that make up a FRET pair. In the primary reaction, the kinase transfers the gamma-phosphate of ATP to a single tyrosine, serine or threonine residue in a synthetic FRET-peptide. In the secondary reaction, a site-specific protease recognizes and cleaves non-phosphorylated FRET-peptides. Phosphorylation of FRET-peptides suppresses cleavage by the Development Reagent. Cleavage disrupts FRET between the donor (i.e., coumarin) and acceptor (i.e., fluorescein) fluorophores on the FRET-peptide, whereas uncleaved, phosphorylated FRET-peptides maintain FRET. A ratiometric method, which calculates the ratio (Emission Ratio=Coumarin emission (445 nm)/Fluorescein emission (520 nm)) of donor emission to acceptor emission after excitation of the donor fluorophore at 400 nm, is used to quantitate reaction progress, as shown in the equation below. A significant benefit of this ratiometric method for quantitating reaction progress is the elimination of well-to-well variations in FRET-peptide concentration and signal intensities. As a result, the assay yields very high Z′-factor values (>0.7) at a low percent phosphorylation. Both cleaved and uncleaved FRET-peptides contribute to the fluorescence signals and therefore to the Emission Ratio. The extent of phosphorylation of the FRET-peptide can be calculated from the Emission Ratio. The Emission Ratio will remain low if the FRET-peptide is phosphorylated (i.e., no kinase inhibition) and will be high if the FRET-peptide is non-phosphorylated (i.e., kinase inhibition).
(§3) The Test Compounds are screened in 1% DMSO (final) in the well. For 10 point titrations, 3-fold serial dilutions are conducted from the starting concentration of the customer's choosing.
(§4) All Peptide/Kinase Mixtures are diluted to a 2× working concentration in the appropriate Kinase Buffer (see section Kinase Specific Assay Conditions for a complete description).
(§5) All ATP Solutions are diluted to a 4× working concentration in Kinase Buffer (50 mM HEPES pH 7.5, 0.01% BRIJ-35, 10 mM MgCl2, 1 mM EGTA). ATP Km apparent is previously determined using a Z″-LYTE assay.
(§6) The Development Reagent is diluted in Development Buffer (see section Kinase-Specific Assay Conditions—Direct and Cascade for a complete description).
(§7) Bar-coded Corning, low volume NBS, black 384-well plate (Corning Cat. #4514) • 1. 100 nL—100× Test Compound in 100% DMSO • 2. 2.4 μL—Kinase buffer • 3. 5 μL—2× Peptide/Kinase Mixture • 4. 2.5 μL—4×ATP Solution • 5. 30—second plate shake • 6. 60—minute Kinase Reaction incubation at room temperature • 7. 5 μL—Development Reagent Solution • 8. 30—second plate shake • 9. 60—minute Development Reaction incubation at room temperature • 10. Read on fluorescence plate reader and analyze the data Z′-LYTE Assay Controls
(§8) SelectScreen Kinase Profiling Service uses XLfit from IDBS. The dose response curve is curve fit to model number 205 (sigmoidal dose-response model).
(§9) The 2×MAP4K4 (HGK)/Ser/Thr 07 mixture is prepared in 50 mM HEPES pH 7.5, 0.01% BRIJ-35, 10 mM MgCl2, 1 mM EGTA. The final 10 μL Kinase Reaction consists of 0.36-1.82 ng MAP4K4 (HGK) and 2 μM Ser/Thr 07 in 50 mM HEPES pH 7.5, 0.01% BRIJ-35, 10 mM MgCl2, 1 mM EGTA. After the 1 hour Kinase Reaction incubation, 5 μL of a 1:45000 dilution of Development Reagent A is added.

AURKA (Aurora A) = target: T1, AURKA (Aurora A) (Homo sapiens, UniProt O14965); experiment: Z'-LYTE SelectScreen biochemical kinase assay AURKA (Aurora A)
T1 sequence (O14965 1-403): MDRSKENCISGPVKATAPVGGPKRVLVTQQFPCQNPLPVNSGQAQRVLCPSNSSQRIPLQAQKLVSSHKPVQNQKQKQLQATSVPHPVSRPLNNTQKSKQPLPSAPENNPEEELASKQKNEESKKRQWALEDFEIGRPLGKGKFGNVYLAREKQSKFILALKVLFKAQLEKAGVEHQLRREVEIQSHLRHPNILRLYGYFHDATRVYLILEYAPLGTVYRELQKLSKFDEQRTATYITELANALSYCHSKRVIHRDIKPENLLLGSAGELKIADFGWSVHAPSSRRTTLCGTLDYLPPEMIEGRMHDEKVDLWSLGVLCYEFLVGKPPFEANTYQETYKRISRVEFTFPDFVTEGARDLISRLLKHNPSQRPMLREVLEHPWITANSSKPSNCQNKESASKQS
Description: as §1, §2, §3, §4, §5, §6, §7, §8
as §9, with “2×AURKA (Aurora A)/Ser/Thr 01” for “2×MAP4K4 (HGK)/Ser/Thr 07”, “0.91-8.56” for “0.36-1.82”, “AURKA (Aurora A)” for “MAP4K4 (HGK)”, “01” for “07”, “1:4096” for “1:45000”

panel of 15 kinases = experiment: Z'-LYTE SelectScreen kinase panel: number of kinases with <40% inhibition; type: biochemical; conditions: of 15 kinases tested; 10 μmolar compound; ATP at Km app
[2] = 10 μmolar compound concentration, ATP at Km app, read-out: MAP4K4 (HGK) inhibition
[3] = 10 μmolar compound concentration, ATP at Km app, read-out: AURKA (Aurora A) inhibition
[4] = read-out: % Inhibition mean MAP4K4 (HGK)
[5] = read-out: % Inhibition mean AURKA (Aurora A)

| No. of kinases with >80% inhibition [1] | inhibition at 10 µM (MAP4K4 (HGK); [2]) | inhibition at 10 µM (MAP4K4 (HGK); read-out: % Inhibition mean) | inhibition at 10 µM (AURKA (Aurora A); [3]) | inhibition at 10 µM (AURKA (Aurora A); read-out: % Inhibition mean) | inhibition at 10 µM (MAP4K4 (HGK); [4]) | No. of kinases with <40% inhibition (panel of 15 kinases) | inhibition at 10 µM (AURKA (Aurora A); [5]) | Structure (SMILES) |
| --- | --- | --- | --- | --- | --- | --- | --- | --- |
| 15/15 | > 80% | 95% | > 80% | 89% |  |  |  | Fc1cccc(-c2cccn3nc(Nc4ccc5[nH]cnc5c4)nc23)c1 [Cpd. 293 in WO09155551, reference compound] |
| 15/15 | > 80% | 99% | > 80% | 98% |  |  |  | CC1(C)NC(=O)c2ccc(Nc3nc4c(-c5cccc(F)c5)cccn4n3)cc21 [Cpd. 302 in WO09155551, reference compound] |
|  | 40 to 80% |  | 40 to 80% |  | 56% | 11/15 | 51% | CCn1ncc2c1CCC(Nc1nc3c(-c4cncc(OC)c4)cccn3n1)C2 (centres unmarked) [Example 70, (1-Ethyl-4,5,6,7-tetrahydro-1H-indazol-5-yl)-[8-(5-methoxy-pyridin-3-yl)-[1,2,4]triazolo[1,5-a]pyridine-2-yl]-amine] |
|  | 40 to 80% |  | < 40% |  | 48% | 12/15 | 29% | CCn1ncc2c1CCC(Nc1nc3c(-c4cccnc4)cccn3n1)C2 (centres unmarked) [Example 63, (1-Ethyl-4,5,6,7-tetrahydro-1H-indazol-5-yl)-(8-pyridin-3-yl-[1,2,4]triazolo[1,5-a]pyridine-2-yl)-amine] |
|  | 40 to 80% |  | < 40% |  | 42% | 11/15 | 39% | CCn1ncc2c1CCC(Nc1nc3c(-c4cnccc4OC)cccn3n1)C2 (centres unmarked) [Example 68, (1-Ethyl-4,5,6,7-tetrahydro-1H-indazol-5-yl)-[8-(4-methoxy-pyridin-3-yl)-[1,2,4]triazolo[1,5-a]pyridine-2-yl]-amine] |
|  | < 40% |  | < 40% |  | 24% | 15/15 | -8% | CCn1ncc2c1CC[C@@H](Nc1nc3c(-c4ccc(F)c(Cl)c4)cccn3n1)C2 [Example R-61, (R)-[8-(3-Chloro-4-fluoro-phenyl)-[1,2,4]triazolo[1,5-a]pyridine-2-yl]-(1-ethyl-4,5,6,7-tetrahydro-1H-indazol-5-yl)-amine] |
| 15/15 | > 80% | 98% | > 80% | 99% |  |  |  | CC1(C)C(=O)Nc2ccc(Nc3nc4c(-c5cccc(F)c5)cccn4n3)cc21 [Cpd. 263 in WO09155551, reference compound] |
